Source: paper PMC8277517, “Anticolon Cancer Properties of Pyrazole Derivatives Acting through Xanthine Oxidase Inhibition” (Journal of Oncology, 2021)
Read-outs that look alike come from different tables or passages of the source.

Columns and labels:
[1] = system: MCF-7 breast adenocarcinoma cell line; assay: Sulforhodamine B (SRB) cytotoxicity assay, MCF-7; assay type: cell-based; conditions: Homo sapiens, MCF7, 72 h
Description: (§1) Human hepatocellular carcinoma cell line (HepG-2, ATCC HB-8065), colorectal adenocarcinoma cell line (HCT-116, ATCC CCL-247), and breast adenocarcinoma cell line (MCF-7, ATCC HTB-22) were obtained from the American type culture collection (ATCC). Cells were maintained in RPMI-1640 supplemented with (100 μg/ml) penicillin (100 units/ml) and heat-inactivated fetal bovine serum (10% v/v) in a humidified, 5% (v/v) CO2 atmosphere at 37°C [13].
(§2) The cytotoxicity of the different compounds was tested against human tumor cells using the sulforhodamine B assay (SRB). Healthy growing cells were cultured in a 96-well tissue culture plate (3000 cells/well) for 24 hours to allow attachment of the cells to the plate before treatment with the tested compounds. […] Triplicate wells were incubated with different concentrations for 72 h and subsequently fixed with TCA (10% w/v) for 1 h at 4°C. […] After drying overnight, the SRB-stained cells were dissolved with tris-HCl and the color intensity was measured in a microplate reader at 540 nm.
(§3) The SRB assay is the “gold-standard” assay and is extensively used in the high-throughput screening program at the National Cancer Institute (NCI), USA. The SRB uses an aminoxanthene dye, which readily stains the cells through binding with the basic amino acids of cellular proteins. […]

[2] = system: HCT-116 colorectal carcinoma cell line; assay: Sulforhodamine B (SRB) cytotoxicity assay, HCT-116; assay type: cell-based; conditions: Homo sapiens, 72 h
Description: as §1, §2, §3

[3] = system: HepG2 hepatocellular carcinoma cell line; assay: Sulforhodamine B (SRB) cytotoxicity assay, HepG2; assay type: cell-based; conditions: Homo sapiens, 72 h
Description: as §1, §2, §3

[4] = system: MCF-7 breast adenocarcinoma cell line; parameters: method as in doi:10.2174/1570178617666200320104923; conditions: Figure 1 design strategy, earlier lead; cited from earlier work
[5] = system: HCT-116 colorectal carcinoma cell line; parameters: method as in doi:10.2174/1570178617666200320104923; conditions: Figure 1 design strategy, earlier lead; cited from earlier work
[6] = system: MCF-7, HepG2, and HCT-116 cell lines; parameters: method as in doi:10.2174/1570178617666200320104923; conditions: read-out: IC50 inhibition of cell proliferation (range over cell lines); cited from earlier work

In the case of COc1cccc2c1C(=O)c1c(O)c3c(c(O)c1C2=O)C[C@@](O)(C(=O)CO)C[C@@H]3O[C@H]1C[C@H](N)[C@H](O)[C@H](C)O1 [Doxorubicin], the IC50 [1] is reported as 4.7 ± 0.08 µM, the IC50 [2] is reported as 4.4 ± 0.04 µM and the IC50 [3] is reported as 3.9 ± 0.06 µM.
For CC1=NN(C(=O)c2ccncc2)C(=O)/C1=N/Nc1ccc([N+](=O)[O-])cc1 [Arylhydrazono pyrazoles (AHP)], the IC50 [4] is listed as 0.2 µM.
For COc1ccc(/N=N/c2c(C)nn(C(=O)c3ccncc3)c2C)cc1 [Aryldiazenyl pyrazoles (ADP)], the IC50 [5] is listed as 61.3 µM.
In the case of CC1=NN(C(=O)c2ccncc2)C(=O)C1=NNc1ccc([N+](=O)[O-])cc1 [1-isonicotinoyl-3-methyl-4-[2-(4-nitrophenyl)hydrazono]-2-pyrazolin-5-one], the IC50 [6] is listed as 0.2 to 3.4 µM.
